Test results as given in the supplement of paper PMC11451515.

How the values were obtained:
Test in all cases: AUC of viability dose-response curve (% viability x log10 dose units); higher = less sensitive
Conditions in all cases: 48 h
P12-Ichikawa = system: P12-Ichikawa
Summary of the method: (§1)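 Viability of medium-adapted leukemia cells was measured by CellTiter-Glo One luminescence after 48 h at 37°C with library compounds in DMSO. Doses were 11 threefold steps from 47 μM to 0.79 nM, in 1536-well plates at 500 or 1000 cells/well. Signals were normalised per plate to DMSO and cell-free wells and fitted with a four-parameter log-logistic model on log10 dose. Area under the curve was integrated by trapezoidal rule, with curves exceeding full viability scaled and failed quality-control curves removed.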

NOMO1 = system: NOMO1
Summary of the method: as §1

SEM cells = system: SEM cells
Summary of the method: as §1

[1] = RPMI 5 mM glucose + 10% dialyzed FBS

Compound	AUC of viability dose-response curve (P12-Ichikawa; HPLM + 10% dialyzed FBS)	AUC of viability dose-response curve (P12-Ichikawa; RPMI 5 mM glucose + 10% FBS)	AUC of viability dose-response curve (P12-Ichikawa; [1])	AUC of viability dose-response curve (NOMO1; HPLM + 10% dialyzed FBS)	AUC of viability dose-response curve (NOMO1; RPMI 5 mM glucose + 10% FBS)	AUC of viability dose-response curve (NOMO1; [1])	AUC of viability dose-response curve (SEM cells; HPLM + 10% dialyzed FBS)	AUC of viability dose-response curve (SEM cells; RPMI 5 mM glucose + 10% FBS)	AUC of viability dose-response curve (SEM cells; [1])
CN[S+](=O)([O-])Cc1ccc2[nH]cc(CCN(C)C)c2c1	467	457	460	454	443	454	442	431	456
CC(=O)O[C@H]1C(=O)[C@]2(C)[C@@H](O)C[C@H]3OC[C@@]3(OC(C)=O)C2[C@H](OC(=O)C4=CC=CC=C4)[C@]5(O)C[C@H](OC(=O)[C@H](O)[C@@H](NC(=O)C6=CC=CC=C6)C7=CC=CC=C7)\C(=C1/C5(C)C)C (some centres not stated)	148	143	195	–	–	–	–	–	–
CC\1=C(C(\N=C(/N1)C2=CC(=NC=C2)Cl)C3=C(F)C=C(Cl)C=C3)/C(=O)NC4=C(F)C=C5[NH]N=CC5=C4 (configuration not stated)	440	439	441	459	443	457	408	405	423
CC(C)[C@@H](N(CCCN)C(=O)C1=CC=C(C)C=C1)C/2=N/C3=CC(=CC=C3C(=O)N2CC4=CC=CC=C4)Cl	61	66.9	97.9	123	82.4	106	–	–	–
CC/1=C/C(=O)N(O)/C(=C1)C2CCCCC2	435	415	430	441	445	446	430	419	427
COc1ccc(C[C@@H](C)[C@@H](C)Cc2ccc(OC)c(OC)c2)cc1OC	355	353	354	326	315	328	336	364	320
Cc1ccccc1N1C(=O)c2cc([S+](N)(=O)[O-])c(Cl)cc2NC1C (configuration not stated)	449	460	450	–	–	–	448	413	462
NC(=O)c1cnc(N[C@@H]2CCCC[C@@H]2N)nc1Nc1cccc(-n2nccn2)c1	468	462	471	457	457	453	419	420	428
CC(=O)N(C)c1cccc(-c2ccnc3c(C(=O)c4cccs4)cnn23)c1	458	454	453	477	470	437	447	456	439
COC1=CC=CC=C1C2=CC=CC(=C2)C/3=C(O)/C4=CC(=C(Cl)C=C4NC3=O)C#N	361	388	380	368	401	400	350	288	344
Cn1c(=O)c2c(ncn2C)n(C)c1=O.O=C(O)CC(O)(CC(=O)O)C(=O)O	459	462	472	439	465	455	472	456	475
